The source of these data is US9453051B2, “Cyclosporin derivatives” (priority 2011, dated 2016).

The nature of data set [1]: in vitro. Conditions: human, Caco-2, pH 7.4.
Data set [2] relates to ovalbumin sensitized mice (BALB/c-strain). Description: Asthma evaluations (ovalbumin sensitized mice). It is filed as in vivo. Conditions: 200 μg i.p. at days 7, 9 and 11. On the procedure: By application of ovalbumin together with aluminium hydroxide an immune response to ovalbumin is provoked. The immune response may be traced using the immigrated T-helper cell population (CD4+) and the immigrated eosinophilic granulocytes. Female mice (BALB/c-strain) were sensitized by intraperitoneal (i.p.) application of 50 μg ovalbumin solved in phosphate buffer (PBS) ((OVA) plus 100 μl aluminium hydroxide) with a total volume of 200 μl per mouse on day 0. 100 μg OVA in PBS (50 μl total volume) was intranasal administered to the ovalbumin sensitized mice under mild anesthesia (isoflurane) at days 7-10. These animals were divided into groups which obtained in addition either 200 μg test compound in PBS (i.p.), only PBS (diluent) or no further additive (−) at days 7, 9 and 11. At day 12 all animals were sacrificed by CO2 exposition and cells of the bronchial tract were obtained by bronchial lavage (BAL) with threefold washing with 1 ml of cold PBS each using a cannula introduced into the trachea. The cells obtained by BAL were then stained twice (a) with Cy-chrome conjugated anti-mouse CD4 antibodies and (b) with FITC conjugated anti-mouse CD62L antibodies. Subsequently, the cells were analyzed by FACS. Effector/memory CD4^+ T-cells were differentiated as CD4^+/CD62L^− lymphocytes and eosinophilic cells using their stray light characteristics (FSC/CCS).

Data set [3] deals with calcineurin (Homo sapiens, UniProt P62937+P63098+Q08209). Put plainly: Inhibition of the phosphatase activity of calcineurin (scintillation-proximity-assay, in presence of Cyp18).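 Also: calcineurin dephosphorylation of a ³³P-labelled RII phosphopeptide, captured on streptavidin-coated wells and read by scintillation counting, with uninhibited enzyme activity taken as 100%.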
Experimental: The measurement was carried out by incubation of 10 μMol of the biotinylated phosphopeptide [sequence]pSer-Val-Ala-Ala-Glu (MW=2192.0) (RH-peptide) marked with ^33P in a sample buffer (40 mM Tris-HCl, pH 7.5, 100 mM NaCl, 6 mM MgCl2, 0.5 mM dithiothreitol, 1 mM. CaCl2, 0.1 mg/ml bovine serum albumin) in presence of 50 nM calmodulin and 1.32 nM calcineurin at 30° C. for 20 min in a 96 well micro titer plate (Costar, Bodenheim, Germany). The total volume of the assay/well was 100 μl. After this reaction time a 90 μl aliquot of the reaction mixture was transferred into a scintillation cavity coated with streptavidin and incubated for 20 min at 22° C. After a washing step the RII phosphopeptide-associated ^33P radioactivity was measured in a MicroBeta Top Counter (Wallac) and the enzyme activity was indicated as average value of three measurements±S.D. The uninhibited dephosphorylation activity has been set on 100%.
Data set [4] deals with Jurkat cells. Description: Determination of cell permeability in Jurkat cells (displacement of fluorescent CsA derivative, FACS). It is filed as cell-based. Conditions: FIG. 1; in comparison to CsA. Here is the method: Jurkat cells of the cell culture have been harvested and centrifuged. The medium has been discarded and the cells were washed once with RPM′ (without phenol red, 10% FCS, Hepes, gentamicin). The cells were re-suspended in a medium adjusted to a cell concentration of 1.0×10^5-3.0×10^5 cells/ml and subsequently incubated with a fluorescent CsA derivative (0.5 μM-2.0 μM) at 37° C., 5-10% CO2 and 100% humidity. The cells were then centrifuged, the medium discarded and the cell pellet was washed once with medium and the cells were resuspended in a new medium. Subsequently, the cells were incubated for a half hour to 4 hours with the corresponding concentration (0.01 μM to 100 μM) of the test compound to be analyzed and then centrifuged again. The medium was discarded; it was once washed with 1 ml PBS and suspended in 500 μl PBS. The analysis was carried out using FACS-measurement by quantification of the replaced fluorescent CsA-derivative. The reference (without inhibitor) was thereby set 100%.

Data set [5] is described as follows: Determination of cell permeability in PAMPA cell membranes (Parallel Artificial Membrane Permeability Assay). It is filed as in vitro ADME. The following applies: 500 μM, Hepes buffer pH 7.4, 16 hours, room temperature. Here is the method: After an incubation of 16 hours at room temperature in a liquid chamber the optical density of the solution after filtration has been measured in a range of 250 to 500 nm in steps of 10 nm each. The percentage “Flux” has been calculated from the integral of the graph between 250 and 500 nm and standardized on the optical density determined in the parallel reaction without artificial membrane.
For orientation: In PAMPA a lipid-coated filter parts donor from acceptor wells.

In data set [6] the test system is NFAT. Description: Cellular NFAT-reporter-gene assay (GloResponse NFAT-RE-luc2P HEK293). It is filed as cell-based. The following applies: Homo sapiens, HEK293, 16 h, read-out: NFAT-reporter-gene assay IC50. From the text: An antigen specific stimulation of the T-cell receptor causes the activation of transcription factors such as e.g. NFAT (nuclear factor of activated T cells). NFAT-activation is essential for the expression of interleukine-2 and therefore, for the proliferation of T-cells as part of the immune response. A stable NFAT-reporter-gene cell line enables the analysis of modulators of the NFAT-pathways and thus, the evaluation of the immunosuppressive effects of compounds.
The stably transfected reporter-gene cell line GloResponse NFAT-RE-luc2P HEK293 (promega Corp. USA) was cultivated in DMEM (10% FCS; 2 mM Glutamin; 200 μg/ml Hygromycin) and seeded on 96-well plates (200.000 cells/well). The compounds to be tested were either added to the cells in a 2-point-determination (5 μM and 10 μM) or an ICH-determination (concentration series 4.1 nM-1 μM). […] Immediately thereafter the cells were stimulated with 5 nM PMA and 2 μM ionomycin and incubated over 16 h (37° C.; cell incubator). This double stimulation simulates a T-cell receptor stimulation and causes a NFAT activation with subsequently expression of the luciferase-reporter-gene. The amount of luciferase was quantitatively determined after 16 h by measurement of the bioluminescence by Bright-Glo Luciferase-Assay-System (Promega Corp., USA). The averaged luciferase values of the vehicle treated (1% DMSO) and with PMA/ionomycin stimulated cells were used as positive control and reference value.

The target of data set [7] is recombinant human wild type Cyp18 (Cyp18 wt) (Homo sapiens, UniProt P62937). Put plainly: biochemical.
recombinant human wild type Cyp18 (Cyp18 wt), sequence (P62937 whole entry): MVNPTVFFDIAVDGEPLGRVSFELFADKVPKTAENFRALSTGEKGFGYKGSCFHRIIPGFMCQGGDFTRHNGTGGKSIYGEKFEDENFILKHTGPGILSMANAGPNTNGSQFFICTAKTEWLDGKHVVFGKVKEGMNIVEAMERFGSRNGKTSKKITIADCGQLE
Experimental: The determination was performed on a UV/Vis spectrometer at 10° C. cuvette temperature, whereby the device is operated at 390 nm in kinetic-mode (measurement buffer: 35 mM HEPES/NaOH pH 7.8 (AppliChem A1069)). 0.58 nM recombinant human wild type Cyp18 (Cyp18 wt), 2.33 nM bovine serum albumin (BSA) and 1 mg/ml chymotrypsin (Merck) solved in 35 mM HEPES/NaOH pH 7.8 as well as different concentration of each test substance, where appropriate, were in the cuvette. The reaction was started with a stock solution of Suc-Ala-Ala-Pro-Phe-4-nitroanilide (Bachem, 10 mg/ml DMSO) as substrate so that a final substrate concentration of 32 μM resulted. The extinction-time-curves were evaluated after expiry of the fast phase of the reaction i.e. after approximately 60 seconds according to a rate equation of a first-order reaction.

Where only a bound is given, the exact number is not on record here.

By Papp A→B is commonly meant how fast a substance crosses the layer from the apical side. The low end stands for poor permeation, the high end for ready permeation. The term Papp B→A denotes the apparent permeability from the basolateral to the apical side of a cell layer. For orientation: IC50 means the concentration that inhibits the measured activity by half. As for `CC[C@@H]1NC(=O)[C@H]([C@H](O)[C@H](C)Cc2nc3ccc(C(=O)O)cc3[nH]2)N(C)C(=O)[C@H](C(C)C)N(C)C(=O)[C@H](CC(C)C)N(C)C(=O)[C@H](CC(C)C)N(C)C(=O)[C@@H](C)NC(=O)[C@H](C)NC(=O)[C@H](CC(C)C)N(C)C(=O)[C@H](C(C)C)NC(=O)[C@H](CC(C)C)N(C)C(=O)CN(C)C1=O` [Compound 5], in data set [1], the apical-to-basolateral permeability (Papp A→B) at 2 h, 5 μM was determined as 0.17 ×10⁻⁶ cm/s and the Papp B→A at 2 h, 5 μM was 0.13 ×10⁻⁶ cm/s. The “Number of eosinophilic granulocytes (eosinophils) in bronchial lavage” value in data set [2] (FIG. 3) is listed as “reduced very significantly”. In addition, the “Number of eosinophilic granulocytes (eosinophils) in lung tissue” value in data set [2] (FIG. 4) was “reduced very significantly”. Moreover, the “Number of CD4 positive T-cells in bronchial lavage (BAL)” value in data set [2] (FIG. 5) is reported as “reduced very significantly”. Also, the “Number of CD4 positive T-cells in the lung tissue” value in data set [2] (FIG. 6) is given as “reduced very significantly”. In data set [3], the IC50 was more than 10 µM. Also, the “Cell permeability in Jurkat cells” value in data set [4] is “not cell permeable”. Moreover, the “Cell permeability in PAMPA-cell membranes” value in data set [5] was found to be 1.7 % flux. In addition, the IC50 in data set [6] is more than 10 µM.
For `CC[C@@H]1NC(=O)[C@H]([C@H](O)[C@H](C)Cc2nc3cc(NC(=N)N)ccc3[nH]2)N(C)C(=O)[C@H](C(C)C)N(C)C(=O)[C@H](CC(C)C)N(C)C(=O)[C@H](CC(C)C)N(C)C(=O)[C@@H](C)NC(=O)[C@H](C)NC(=O)[C@H](CC(C)C)N(C)C(=O)[C@H](C(C)C)NC(=O)[C@H](CC(C)C)N(C)C(=O)CN(C)C1=O` [Compound 46], in data set [1], the apical-to-basolateral permeability (Papp A→B) at 2 h, 5 μM turned out to be 0.4 ×10⁻⁶ cm/s. Also, the results for the IC50 in data set [3], in data set [6] and in data set [7] were 6.63 µM, more than 10 µM and 0.0131 µM, respectively. The “Cell permeability in PAMPA-cell membranes” value in data set [5] is 13.5 % flux.
